Assay results published in patent US20240287138A1, “CYCLIC PEPTIDES FOR INHIBITING TNF RECEPTOR 1 ACTIVITY” (Merck Sharp & Dohme LLC, priority 2023, published 2024).
Read-outs that look alike come from different tables or passages of the source. Numbered stars: 1 amine (or outer) side, 2 acyl side, 3 side chain; on linkers, the order of the positions; unused ones are H or OH. Bridge positions count the residues as written; N and C are the ends. Square brackets hold non-standard residues; d marks the D form. Peptide text beside a SMILES is read from it. Trp(βS-Me,7-OMe) = COc1cccc2c([C@H](C)[C@H](N)C(=O)O)c[nH]c12; Ala(indazol-1-yl) = N[C@@H](Cn1ncc2ccccc21)C(=O)O; Trp(7-Cl) = N[C@@H](Cc1c[nH]c2c(Cl)cccc12)C(=O)O; X11 = O=C(O)C[C@@H]1C[C@H](C(=O)[*:2])N([*:1])C1; Phe(4-CONH2) = NC(=O)c1ccc(C[C@H](N)C(=O)O)cc1; Phe(4-COOH) = N[C@@H](Cc1ccc(C(=O)O)cc1)C(=O)O; Trp(7-aza) = N[C@@H](Cc1c[nH]c2ncccc12)C(=O)O; Phe(4-CH2NH2) = NCc1ccc(C[C@H](N)C(=O)O)cc1; Trp(1-Me) = Cn1cc(C[C@H](N)C(=O)O)c2ccccc21; Pip(5R-OH) = O=C(O)[C@@H]1CC[C@@H](O)CN1; X1 = O=C([C@@H]1CC[C@H](N[*:1])C1)[*:2]; NHCH2CH2SCH2CO = O=C(CSCCN[*:1])[*:2]; hPhe = N[C@@H](CCc1ccccc1)C(=O)O; 4Pal = N[C@@H](Cc1ccncc1)C(=O)O; NMeE = CN[C@@H](CCC(=O)O)C(=O)O; hLys = NCCCCC[C@H](N)C(=O)O; αMeS = C[C@](N)(CO)C(=O)O; NMeA = CN[C@@H](C)C(=O)O; Nle = CCCC[C@H](N)C(=O)O; Sar = CNCC(=O)O

Legend:
[1] = molecular target: T1, human TNFR1 extracellular domain (ECD) protein (Homo sapiens, UniProt P19438); test: SPR binding affinity to captured human TNFR1 ECD
T1 construct: HRV 3C protease cleavage site (C); 6His (C, cleaved yes); made in house; host or cells: Sf21 insect cells (baculovirus), secreted
T1 sequence (P19438 30-211): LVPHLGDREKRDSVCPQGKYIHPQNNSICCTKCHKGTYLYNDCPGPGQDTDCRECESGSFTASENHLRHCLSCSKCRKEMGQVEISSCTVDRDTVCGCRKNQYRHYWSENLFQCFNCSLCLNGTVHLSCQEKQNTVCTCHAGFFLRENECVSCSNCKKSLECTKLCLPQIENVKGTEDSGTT
Summary of the method: (§1)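 Peptide binding kinetics read by SPR in HEPES pH 7.4 running buffer with 2% DMSO, with TNFR2 ECD tested in parallel for off-target binding. Receptor ECDs, insect-cell expressed and biotinylated at C-terminal avi-tag, were captured via streptavidin. KA derived from association and dissociation rate constants.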

human TNFR2 ECD protein = molecular target: T2, human TNFR2 ECD protein (Homo sapiens, UniProt P20333); test: SPR off-target binding (selectivity) to human TNFR2 ECD
T2 construct: HRV 3C protease cleavage site (C); 6His (C, cleaved yes); made in house; host or cells: Sf21 insect cells (baculovirus), secreted
T2 sequence (P20333 23-257): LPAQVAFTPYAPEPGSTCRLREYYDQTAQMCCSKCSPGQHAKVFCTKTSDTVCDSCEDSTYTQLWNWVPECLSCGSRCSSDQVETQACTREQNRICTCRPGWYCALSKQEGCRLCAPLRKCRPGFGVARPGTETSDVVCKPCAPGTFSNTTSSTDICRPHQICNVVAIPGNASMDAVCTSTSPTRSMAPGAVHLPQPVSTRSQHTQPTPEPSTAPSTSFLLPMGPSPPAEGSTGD
Summary of the method: as §1

[2] = molecular target: T3, TNFα-induced NF-κB signal transduction pathway (TNFR1 signaling) in THP-1 cells (Homo sapiens, UniProt P19438); test: THP-1 Lucia NF-κB reporter cell assay, inhibition of TNFα-induced NF-κB signaling; format: cell-based; details: THP-1 NF-κB Lucia reporter cells, 10 ng/mL TNFα, 16-18 h, secreted luciferase; read-out: THP-1 IC50
T3 sequence (P19438 30-455): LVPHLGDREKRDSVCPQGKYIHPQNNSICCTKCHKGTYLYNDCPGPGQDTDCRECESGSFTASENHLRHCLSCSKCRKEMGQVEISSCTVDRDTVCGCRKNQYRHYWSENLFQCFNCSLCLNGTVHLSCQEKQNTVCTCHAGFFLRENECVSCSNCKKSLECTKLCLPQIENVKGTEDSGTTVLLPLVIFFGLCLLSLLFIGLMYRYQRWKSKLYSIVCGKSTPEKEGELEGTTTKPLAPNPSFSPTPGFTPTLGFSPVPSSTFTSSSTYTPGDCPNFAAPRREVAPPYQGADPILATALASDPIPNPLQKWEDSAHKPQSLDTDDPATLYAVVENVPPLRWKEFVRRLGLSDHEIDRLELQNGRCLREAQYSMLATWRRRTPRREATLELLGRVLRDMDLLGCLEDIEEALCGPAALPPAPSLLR
Summary of the method: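 Read-out: secreted Lucia luciferase luminescence (QUANTI-Luc) from supernatant after 16-18 h, 37 °C, 10 ng/mL rhTNFα. Peptide pretreatment 1 h at 37 °C; 20,000 cells/well, selection antibiotics omitted. IC50 via 4-parameter logistic model against min/max controls.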

[3] = molecular target: T4, human soluble TNFR1 (sTNFR1) (Homo sapiens, UniProt P19438); test: Human sTNFR1-peptide displacement assay (LanthaScreen Eu TR-FRET binding assay)
T4 construct: made in house; host or cells: Sf21 (baculovirus)
T4 sequence (P19438 with tags, fused parts or gaps): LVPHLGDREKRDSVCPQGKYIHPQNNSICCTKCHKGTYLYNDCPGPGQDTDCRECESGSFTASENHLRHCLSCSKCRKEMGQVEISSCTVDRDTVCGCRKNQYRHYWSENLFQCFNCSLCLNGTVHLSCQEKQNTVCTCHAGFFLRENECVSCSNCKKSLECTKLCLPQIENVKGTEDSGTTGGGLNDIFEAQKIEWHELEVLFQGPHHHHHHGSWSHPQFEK
Summary of the method: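 Readout is the 665/615 nm TR-FRET ratio (Eu anti-His donor, streptavidin-Alexa647 acceptor), normalized to DMSO and saturating displacer, fit by Morrison-based five-parameter logistic for Kd^app. His-tagged sTNFR1 (1-211) prebound to 100 nM biotinylated peptide SEQ ID NO.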

| SMILES | Kd [1] [nM] | Kd (human TNFR2 ECD protein) [nM] | IC50 [2] [nM] | IC50 [3] [nM] | Kd [3] [nM] | Kd ([1]; biotinylated human TNFR1 ECD on streptavidin chip, from kon and koff, read-out: SPR hTNFR1 KD) [nM] | Kd (human TNFR2 ECD protein; biotinylated human TNFR2 ECD on streptavidin chip, read-out: SPR hTNFR2 KD) [nM] |
| --- | --- | --- | --- | --- | --- | --- | --- |
| COc1cccc2c([C@H](C)[C@@H]3NC(=O)CN(C)C(=O)[C@H](Cc4ccc(O)cc4)NC(=O)[C@H](Cc4ccc(C(=O)O)cc4)NC(=O)[C@](C)(CO)NC(=O)[C@H](Cc4c[nH]c5c(Cl)cccc45)NC(=O)[C@H](Cc4ccncc4)NC(=O)[C@H](CC(N)=O)NC(=O)[C@H](CCC(=O)O)N(C)C(=O)[C@H](Cc4c[nH]c5ccccc45)NC(=O)[C@@H]4CC[C@@H](O)CN4C(=O)[C@H](Cc4ccncc4)NC(=O)[C@H](CCCCCN)NC(=O)[C@@H]4CC[C@@H](C4)NC3=O)c[nH]c12 [SEQ ID NO. 131] (cyclo([4Pal][Trp(7-Cl)][αMeS][Phe(4-COOH)]Y[Sar][Trp(βS-Me,7-OMe)][X1][hLys][4Pal][Pip(5R-OH)]W[NMeE]N)) | 0.06 | > 1000 | 0.7 |  |  |  |  |
| CCCC[C@@H]1NC(=O)[C@@H]2CC[C@@H](C2)NC(=O)[C@H]([C@@H](C)c2c[nH]c3c(OC)cccc23)NC(=O)CN(C)C(=O)[C@H](Cc2ccc(C(=O)O)cc2)NC(=O)[C@H](Cc2ccc(C(N)=O)cc2)NC(=O)[C@](C)(CO)NC(=O)[C@H](Cc2c[nH]c3c(Cl)cccc23)NC(=O)[C@H](Cc2ccc(C(=O)O)cc2)NC(=O)[C@H](CC(N)=O)NC(=O)[C@H]2C[C@@H](CC(=O)O)CN2C(=O)[C@H](Cc2c[nH]c3ccccc23)NC(=O)[C@@H]2CC[C@@H](O)CN2C(=O)[C@H](Cc2ccncc2)NC1=O [SEQ ID NO. 132] (cyclo([4Pal][Pip(5R-OH)]W[X11]N[Phe(4-COOH)][Trp(7-Cl)][αMeS][Phe(4-CONH2)][Phe(4-COOH)][Sar][Trp(βS-Me,7-OMe)][X1][Nle])) | 0.08 | > 1000 | 0.7 |  |  |  |  |
| CCCC[C@@H]1NC(=O)CSC[C@@H](C(N)=O)NC(=O)[C@H]([C@@H](C)c2c[nH]c3c(OC)cccc23)NC(=O)CN(C)C(=O)[C@H](Cc2ccc(O)cc2)NC(=O)[C@H](Cc2ccc(C(N)=O)cc2)NC(=O)[C@](C)(CO)NC(=O)[C@H](Cc2c[nH]c3c(Cl)cccc23)NC(=O)[C@H](Cc2ccncc2)NC(=O)[C@H](CC(N)=O)NC(=O)[C@H](CCC(=O)O)N(C)C(=O)[C@H](Cc2cn(C)c3ccccc23)NC(=O)[C@@H]2CC[C@@H](O)CN2C(=O)[C@H](Cc2ccncc2)NC1=O [SEQ ID NO. 151] ({CH2CO}-[Nle][4Pal][Pip(5R-OH)][Trp(1-Me)][NMeE]N[4Pal][Trp(7-Cl)][αMeS][Phe(4-CONH2)]Y[Sar][Trp(βS-Me,7-OMe)]C-NH2; thioether N-14) | 0.04 | > 1000 |  | 0.29 | 0.11 |  |  |
| CCCC[C@@H]1NC(=O)CSCCNC(=O)[C@H]([C@@H](C)c2c[nH]c3c(OC)cccc23)NC(=O)CN(C)C(=O)[C@H](Cc2ccc(O)cc2)NC(=O)[C@H](Cc2ccc(C(=O)O)cc2)NC(=O)[C@](C)(CO)NC(=O)[C@H](Cc2c[nH]c3c(Cl)cccc23)NC(=O)[C@H](Cc2ccncc2)NC(=O)[C@H](CC(N)=O)NC(=O)[C@H](CCC(=O)O)N(C)C(=O)[C@H](Cc2c[nH]c3ncccc23)NC(=O)[C@H](CO)NC(=O)[C@H](Cc2ccc(CN)cc2)NC1=O [SEQ ID NO. 258] (cyclo([4Pal][Trp(7-Cl)][αMeS][Phe(4-COOH)]Y[Sar][Trp(βS-Me,7-OMe)][NHCH2CH2SCH2CO][Nle][Phe(4-CH2NH2)]S[Trp(7-aza)][NMeE]N)) | 0.2 | > 1000 | 11.5 |  |  |  |  |
| C[C@H]1C(=O)N[C@@H](CC(N)=O)C(=O)N[C@@H](Cc2ccncc2)C(=O)N[C@@H](Cc2c[nH]c3ccccc23)C(=O)N[C@@](C)(CO)C(=O)N[C@@H](Cc2ccc(C(=O)O)cc2)C(=O)N[C@@H](Cc2ccc(O)cc2)C(=O)N(C)CC(=O)N[C@@H](Cc2c[nH]c3ccccc23)C(=O)N[C@H](C(N)=O)CSCC(=O)N[C@@H](CCc2ccccc2)C(=O)N[C@@H](Cc2ccc(O)cc2)C(=O)N[C@@H](CO)C(=O)N[C@@H](Cn2ncc3ccccc32)C(=O)N1C [SEQ ID NO. 265] ({CH2CO}-[hPhe]YS[Ala(indazol-1-yl)][NMeA]N[4Pal]W[αMeS][Phe(4-COOH)]Y[Sar]WC-NH2; thioether N-14) |  |  | 4.9 |  |  | 1 | > 1000 |
